The values below come from US12606554B2, “Compounds and pharmaceutical compositions thereof for the treatment of diseases” (ONCO3R Therapeutics BV, priority 2019, dated 2026).

The test system of this test is LPS triggered IL-10 secretion in monocyte-derived macrophages (MdM). In words: MdM assay: LPS-triggered IL-10 (ELISA). In kind it is cell-based, human. Conditions: LPS 200 ng/mL, maximal fold change vs LPS only. The procedure: SIK inhibition inhibits TNFα and increases IL-10 release in LPS triggered monocyte-derived macrophages (MdM) and dendritic cells (MdDCs) (Clark et al. 2012; Sundberg et al. 2014; Ozanne et al. 2015). This assay evaluates illustrative compounds of the invention for their inhibition of LPS-induced TNFα and LPS triggered IL-10 secretion in monocyte-derived macrophages.
PBMCs are isolated from human blood samples (buffycoats). The buffy coat is aseptically transferred into a 50 mL Falcon tube, and diluted ½ in PBS. Falcon tubes are filled with 20 mL Lymphoprep™, on top of which 25 mL of the buffy coat is carefully added, tubes are centrifuged for 35 min at 400 g in temperature controlled centrifuge, without brake, at 25° C. PBMCs are aspirated from the white interface layer between sample and Lymphoprep™. PBMCs are washed five times in PBS. Cells are resuspended in RPMI 1640 complete medium supplemented with 10% FBS, 1% P/S, and cell density is determined using a hematologic analyzer (Sysmex XS-500i). […]
The columns are removed from the magnets, and 5 mL of Miltenyi buffer are added to the column to flush out the CD14+ fraction by pushing the plunger into the column. […] The obtained cell pellet is resuspended in 10 mL RPMI w/o FBS, and cell density is determined using a hematologic analyser (Sysmex XS-500i). […]
A general note: An ELISA detects its analyte on a solid surface through an enzyme-linked reagent.

`COc1cc(-c2cnn3cc(OCCN4CCOCC4)ccc23)cc2c1C(=O)N(CC(F)(F)F)CC2` [Cpd 1, 8-methoxy-6-[6-(2-morpholinoethoxy)pyrazolo[1,5-a]pyridin-3-yl]-2-(2,2,2-trifluoroethyl)-3,4-dihydroisoquinolin-1-one]: the “IL-10 FCmax median” value was “++ (>1.5-4.5)”.
